# Data taken from ChEMBL document CHEMBL1201862, “PubChem BioAssay data set” (2004).
# Calls of active or inactive are those of the source.
# What was measured:
# [1] = viability of PTEN-deleted HCT116 cells – cell-based, HCT116 PTEN knockout, dose response (AID 1047); format: functional;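 note: HCT116 colon tumor cells with PTEN knocked out; cells exposed to compound for 60 hours before readout; potency for loss of cell viability measured by luminescence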
# [2] = viability of HCT116 lacking mutant beta-catenin – cell-based, human colon tumor, dose response (AID 1045); format: functional;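 note: HCT116 colon tumor cells with beta catenin knocked out; cells exposed to compound for 60 hours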
# [3] = molecular target: T1, DNA repair protein RAD52 homolog (Homo sapiens, UniProt P43351); format: functional, biochemical
# T1 sequence (P43351 whole entry): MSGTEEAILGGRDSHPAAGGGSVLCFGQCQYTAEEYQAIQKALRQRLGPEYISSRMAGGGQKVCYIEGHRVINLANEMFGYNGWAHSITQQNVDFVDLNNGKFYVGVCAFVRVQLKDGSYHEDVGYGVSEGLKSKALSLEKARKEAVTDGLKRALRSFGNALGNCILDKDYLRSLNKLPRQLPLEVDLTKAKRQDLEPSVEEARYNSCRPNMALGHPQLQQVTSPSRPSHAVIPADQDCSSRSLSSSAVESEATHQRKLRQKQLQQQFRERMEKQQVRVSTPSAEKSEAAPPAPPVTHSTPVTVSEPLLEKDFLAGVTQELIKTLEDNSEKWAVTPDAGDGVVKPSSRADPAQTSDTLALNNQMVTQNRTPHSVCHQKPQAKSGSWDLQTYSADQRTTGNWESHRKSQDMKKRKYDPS
# [4] = molecular target: T2, Polyadenylate-binding protein 1 (Homo sapiens, UniProt P11940); experiment: MLLE binding blockers, Cy5 peptide tracer – biochemical, fluorescence polarization, Cy5-PAM2 peptide, secondary, miRNA deadenylation inhibitor project, dose response (AID 602260); format: functional; settings: read-out: IC50_Mean
# [5] = molecular target: T2, Polyadenylate-binding protein 1; experiment: MLLE domain peptide-binding blockers, IC50 – biochemical, fluorescence polarization, FITC-PAM2 peptide, dose response (AID 602259); format: functional; settings: read-out: IC50_Mean
# [6] = molecular target: T3, Heat shock factor protein 1 (Mus musculus, UniProt P38532); experiment: decrease of HSF1-responsive luciferase luminescence – cell-based, NIH3T3, dose retest, confirmation (AID 2382); format: functional;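 note: NIH3T3 fibroblasts with HSF1-driven luciferase reporter stressed by proteasome inhibitor MG132; luminescence from HSF1-driven luciferase expression after 8 hours of MG132 stress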
# T3 sequence (P38532 whole entry): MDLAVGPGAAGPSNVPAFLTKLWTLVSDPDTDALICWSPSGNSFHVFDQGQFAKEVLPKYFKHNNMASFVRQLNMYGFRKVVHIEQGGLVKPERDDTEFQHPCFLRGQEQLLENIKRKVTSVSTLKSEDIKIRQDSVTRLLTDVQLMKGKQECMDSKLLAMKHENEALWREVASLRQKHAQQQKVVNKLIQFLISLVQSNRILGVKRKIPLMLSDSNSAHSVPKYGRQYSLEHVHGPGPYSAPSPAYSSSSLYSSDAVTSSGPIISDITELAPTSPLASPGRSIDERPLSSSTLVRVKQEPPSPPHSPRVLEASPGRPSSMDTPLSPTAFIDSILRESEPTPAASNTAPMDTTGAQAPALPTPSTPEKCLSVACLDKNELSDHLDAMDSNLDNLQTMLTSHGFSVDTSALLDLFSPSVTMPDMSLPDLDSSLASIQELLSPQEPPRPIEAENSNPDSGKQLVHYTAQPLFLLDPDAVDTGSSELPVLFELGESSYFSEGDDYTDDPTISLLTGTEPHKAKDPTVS
# [7] = blockers of bursicon-stimulated LGR2 cAMP reporter – cell-based, HEK293, CRE-luciferase reporter, cherry pick, set 2, dose response (AID 743343); format: functional;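 note: transfected cells were stimulated with diluted bursicon conditioned medium after compound addition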
# [8] = blockade of melanocortin 4 receptor signaling – cell-based, plate reader, cherry pick, counter-screen for LGR2 antagonist project, dose response (AID 743444); format: functional;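 note: transfected HEK 293 cells stimulated with alpha-MSH peptide; potency of inhibitors of the alpha-MSH evoked signal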
# [9] = Luminescence Cell-Based Dose Confirmation HTS to Identify Activators of 5'UTR Stem-Loop Driven Alpha-Synuclein mRNA Translation in H4 Neuroglioblastoma Cells. [Related pubchem assays: 1829 (Project Summary), 1814 (Primary HTS)]; format: functional
# [10] = Luminescence Cell-Based Dose Response HTS to Identify Activators of Luciferase Translation or Activity in H4 […] Cells. [Related pubchem assays: 1829 (Project Summary), 1814 (Primary HTS)]; format: functional
# H4 = experiment: Luminescence Cell-Based Dose Response HTS to Identify Activators of 5'UTR Stem-Loop Driven Prion Protein mRNA Translation in H4 Neuroglioblastoma Cells. [Related pubchem assays: 1829 (Project Summary), 1814 (Primary HTS)]; format: functional; settings: Homo sapiens
# Large T antigen = Large T antigen (Simian virus 40, UniProt P03070); format: functional, Betapolyomavirus macacae;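 note: Confirmatory-stage PubChem screen for compounds that inhibit SV40 T antigen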
# [11] = molecular target: T4, Corticotropin-releasing factor receptor 2/Corticotropin-releasing factor-binding protein (Homo sapiens, UniProt P24387+Q13324); experiment: Dose Response confirmation of uHTS hits for small molecule antagonists of the CRF-binding protein and CRF-R2 receptor complex.; format: functional; settings: read-out: IC50_Mean
# T4 sequence (Q13324 whole entry): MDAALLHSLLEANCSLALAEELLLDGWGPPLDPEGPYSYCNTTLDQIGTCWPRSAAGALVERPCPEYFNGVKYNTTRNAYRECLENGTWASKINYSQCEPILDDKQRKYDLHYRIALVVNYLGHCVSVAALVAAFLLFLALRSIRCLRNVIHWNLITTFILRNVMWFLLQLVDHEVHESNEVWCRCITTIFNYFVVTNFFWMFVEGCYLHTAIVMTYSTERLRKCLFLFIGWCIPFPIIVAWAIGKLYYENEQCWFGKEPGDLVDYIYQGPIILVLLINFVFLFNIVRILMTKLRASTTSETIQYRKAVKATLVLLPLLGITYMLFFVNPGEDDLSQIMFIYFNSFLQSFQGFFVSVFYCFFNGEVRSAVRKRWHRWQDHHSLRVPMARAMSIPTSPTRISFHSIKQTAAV
# T4 sequence (P24387 whole entry): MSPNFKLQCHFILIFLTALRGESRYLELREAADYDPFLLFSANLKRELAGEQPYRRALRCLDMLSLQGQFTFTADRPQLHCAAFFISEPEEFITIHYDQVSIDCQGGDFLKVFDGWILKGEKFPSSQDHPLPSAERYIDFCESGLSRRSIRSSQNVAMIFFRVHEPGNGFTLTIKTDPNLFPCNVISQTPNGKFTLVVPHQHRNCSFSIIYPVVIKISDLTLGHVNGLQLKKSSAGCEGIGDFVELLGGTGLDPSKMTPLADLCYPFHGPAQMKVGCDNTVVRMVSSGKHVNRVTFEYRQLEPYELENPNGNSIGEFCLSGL
# [12] = molecular target: T4, Corticotropin-releasing factor receptor 2/Corticotropin-releasing factor-binding protein; experiment: activators of CRF receptor 2 with binding protein – uHTS hits, confirmation (AID 602473); format: functional; settings: read-out: EC50_Mean
# [13] = molecular target: FAD-linked sulfhydryl oxidase ALR (Homo sapiens, UniProt P55789); experiment: ALR-catalysed DTT oxidation blockers – biochemical, H2O2 detection, luminescence, cherry-pick, dose response (AID 493248)
# [14] = molecular target: Glyceraldehyde-3-phosphate dehydrogenase (Homo sapiens, UniProt P04406)
# Glyceraldehyde-3-phosphate dehydrogenase, sequence (P04406 whole entry): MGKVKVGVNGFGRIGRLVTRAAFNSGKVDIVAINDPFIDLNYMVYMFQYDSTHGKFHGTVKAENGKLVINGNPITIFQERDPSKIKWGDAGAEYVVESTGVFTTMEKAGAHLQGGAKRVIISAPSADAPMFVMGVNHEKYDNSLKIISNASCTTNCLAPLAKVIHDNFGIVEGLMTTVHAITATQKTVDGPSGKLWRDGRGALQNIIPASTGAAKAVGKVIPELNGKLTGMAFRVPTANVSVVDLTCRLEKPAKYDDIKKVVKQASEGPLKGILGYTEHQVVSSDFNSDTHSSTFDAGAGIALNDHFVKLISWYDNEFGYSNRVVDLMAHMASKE
# T2 sequence (P11940 whole entry, the tested form may be a part): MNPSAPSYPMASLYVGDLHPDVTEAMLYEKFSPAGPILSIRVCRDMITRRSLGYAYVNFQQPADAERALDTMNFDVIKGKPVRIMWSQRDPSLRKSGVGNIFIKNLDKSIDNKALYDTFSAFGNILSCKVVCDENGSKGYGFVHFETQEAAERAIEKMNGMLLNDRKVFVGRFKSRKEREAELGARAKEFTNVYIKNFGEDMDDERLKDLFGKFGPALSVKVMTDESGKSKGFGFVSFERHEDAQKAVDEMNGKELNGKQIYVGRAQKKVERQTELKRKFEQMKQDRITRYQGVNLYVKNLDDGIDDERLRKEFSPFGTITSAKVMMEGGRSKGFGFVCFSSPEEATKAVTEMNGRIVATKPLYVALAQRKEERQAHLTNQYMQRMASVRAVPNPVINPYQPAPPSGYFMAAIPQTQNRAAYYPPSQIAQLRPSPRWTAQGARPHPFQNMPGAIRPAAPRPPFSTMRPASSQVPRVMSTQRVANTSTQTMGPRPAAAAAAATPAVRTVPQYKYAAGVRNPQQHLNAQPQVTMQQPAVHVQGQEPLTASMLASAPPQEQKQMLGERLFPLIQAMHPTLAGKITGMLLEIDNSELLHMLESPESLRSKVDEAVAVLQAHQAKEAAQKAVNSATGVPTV
# Large T antigen, sequence (P03070 whole entry): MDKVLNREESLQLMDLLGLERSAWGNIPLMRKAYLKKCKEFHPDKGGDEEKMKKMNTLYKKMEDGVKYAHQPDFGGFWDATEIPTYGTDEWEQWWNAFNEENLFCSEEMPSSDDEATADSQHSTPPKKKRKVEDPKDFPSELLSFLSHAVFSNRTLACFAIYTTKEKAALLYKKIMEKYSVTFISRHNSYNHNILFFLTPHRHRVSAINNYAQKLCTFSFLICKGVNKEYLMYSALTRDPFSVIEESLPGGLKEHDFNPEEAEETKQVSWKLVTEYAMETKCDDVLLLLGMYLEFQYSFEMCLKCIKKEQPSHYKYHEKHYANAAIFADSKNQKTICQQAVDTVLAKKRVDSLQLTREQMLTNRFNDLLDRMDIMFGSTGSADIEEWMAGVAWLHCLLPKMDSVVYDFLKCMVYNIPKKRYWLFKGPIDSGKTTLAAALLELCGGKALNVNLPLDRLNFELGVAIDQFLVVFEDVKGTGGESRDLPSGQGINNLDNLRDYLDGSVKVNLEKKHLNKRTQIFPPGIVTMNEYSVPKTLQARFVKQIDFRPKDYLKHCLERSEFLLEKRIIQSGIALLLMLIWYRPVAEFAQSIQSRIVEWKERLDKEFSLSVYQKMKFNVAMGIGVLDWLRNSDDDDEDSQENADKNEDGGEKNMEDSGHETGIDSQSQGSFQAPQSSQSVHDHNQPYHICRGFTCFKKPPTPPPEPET
# FAD-linked sulfhydryl oxidase ALR, sequence (P55789 whole entry): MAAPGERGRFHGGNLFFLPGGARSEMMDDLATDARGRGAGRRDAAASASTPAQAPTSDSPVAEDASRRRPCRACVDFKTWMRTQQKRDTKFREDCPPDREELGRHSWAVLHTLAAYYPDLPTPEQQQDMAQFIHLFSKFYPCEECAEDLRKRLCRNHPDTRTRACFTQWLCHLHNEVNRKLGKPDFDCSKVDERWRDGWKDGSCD
smiles,measurement,setting,value
CN(C)CCN(C)Cc1ccccc1Sc1cccc2ccccc12,EC50,[1],12.8 µM (active)
same,EC50,[2],10.6 µM (active)
same,AC50,[3],11.2 µM (active)
COc1ccc2c(c1)CCN1C2CCN2C(=O)CCC21 (stereo unspecified),IC50,[4],> 66 µM (inactive)
same,IC50,[5],> 66 µM (inactive)
CC(C)(C)c1ccc(C(=O)NCCOc2ccccc2F)cc1,EC50,[6],< 0.16 µM (active)
same,AC50,[7],5.41 µM (active)
same,AC50,[8],4.25 µM (active)
C[C@@H]1[C@@H](Sc2ccccc2)CC(=O)O[C@@H]1c1ccc(-c2ccccc2)cc1,EC50,[9],> 120 µM (not active)
same,EC50,[10],> 120 µM (not active)
same,EC50,H4,> 120 µM (not active)
same,IC50,[4],> 66 µM (inactive)
same,IC50,[5],> 66 µM (inactive)
N#Cc1cc2cc3c(cc2nc1NCCNC(=S)NCCCN1CCOCC1)OCO3,AC50,[3],14.1 µM (active)
FC(F)(F)c1cccc(NC(S)=Nc2cccc(N=C(S)Nc3cccc(C(F)(F)F)c3)n2)c1,IC50,[4],> 66 µM (inactive)
same,IC50,[5],> 66 µM (inactive)
CN(C)c1ccc(NC(=O)COC(=O)Cn2nnc3ccccc32)cc1,IC50,Large T antigen,6.63 µM (active)
same,IC50,[11],> 47.1 µM (inactive)
same,EC50,[12],> 53 µM (inactive)
O=C(c1cc(-c2ccc(Cl)cc2Cl)on1)N1CCCC1,AC50,[7],5.36 µM (active)
same,AC50,[8],5.47 µM (active)
COc1ccc(N)cc1NC(=O)CN1CCCC1,AC50,[13],7.58 µM (active)
same,AC50,[3],9.95 µM (active)
COc1ccc(N=C(S)NC23CN4CN(CN(C4)C2)C3)c(OC)c1,AC50,[3],16.3 µM (active)
COc1cccc(/C=N/c2ccc(N3CCOCC3)cc2)c1O,IC50,Large T antigen,4.14 µM (active)
O=C(c1cc(-c2ccc(Cl)cc2Cl)n[nH]1)N(CCO)CCO,IC50,[14],> 10 µM (inconclusive)
